The source of these data is patent US8501400B2, “Methods and compositions for determining the pathogenic status of infectious agents” (priority 2007, dated 2013).

Experiment [1] relates to H37Rv cells. Description: Sp6 SML-phage drug susceptibility test: SML generation (RT-PCR) in drug-treated Mtb. It counts as cell-based. The settings on record: 0.2 μg/ml INH, 2 μg/ml STR or 7.5 μg/ml EMB, Sp6 SML-phage MOI of 1 for 4 hr.
Experiment [2] concerns H37Rv cells. Description: Effect of mucolytic agents on phage infection and SML generation. It is filed as cell-based, Mtb. As to conditions: equal volume of 0.5% NALC/2.9% NaCitrate or 200 mM TCEP/2.9% NaCitrate, one hour at 37° C., then SML-phage 4 hr; HiSalt conditions not given.
Setting [3] is: 16 hr treatment at 37° C. with 2 μg/ml RIF.
[4] abbreviates: 40 hr treatment at 37° C. with 2 μg/ml RIF.

Take `CC[C@@H](CO)NCCN[C@@H](CC)CO` [EMB, Ethambutol]: the results for the “SML generation after drug treatment” value with H37Rv cells [1] (setting [3]) and in the experiment on H37Rv cells [1] (setting [4]) were “some detectable SML synthesis” and “completely abolished”, respectively.

Regarding `NNC(=O)c1ccncc1` [INH, isoniazid], the entries for the “SML generation after drug treatment” value in the experiment on H37Rv cells [1] (setting [3]) and with H37Rv cells [1] (setting [4]) were “some detectable SML synthesis” and “completely abolished”, respectively.

In the case of `CC(=O)N[C@@H](CS)C(=O)O` [NALC, N-acetyl-L-cysteine], the “Effect on phage infection and SML generation” value with H37Rv cells [2] is given as “no effect”.

In the case of `[H]/N=C(/N)N[C@H]1[C@H](O)[C@@H](O)[C@H](O[C@@H]2O[C@@H](C)[C@](O)(C=O)[C@H]2O[C@@H]2O[C@@H](CO)[C@H](O)[C@@H](O)[C@@H]2NC)[C@@H](N/C(N)=N\[H])[C@@H]1O` [STR, Streptomycin], the “SML generation after drug treatment” value with H37Rv cells [1] (setting [3]) and in the experiment with H37Rv cells [1] (setting [4]) was “no detectable SML” each time.

For the compound `O=C(O)CCP(CCC(=O)O)CCC(=O)O` [TCEP, Tris-Carboxyethylphosphine], the “Effect on phage infection and SML generation” value with H37Rv cells [2] is on record as “completely abolishes SML generation”.
